ChEMBL document CHEMBL1150539, “A novel non nucleoside compound with high in vitro anti-HIV-1 activity. Absolute stereochemistry determination” (Bioorg Med Chem Lett, 1995)
Values joined by “and” are separate entries in the source; they are usually repeats but may differ in a detail not shown here. Identical values can stand only once.

Columns and labels:
Format in all cases: functional, cell-based, Homo sapiens
[1] = system: CEM-SS; experiment: Effective concentration required for 50% inhibition of viral replication by XTT cytoprotection assay carried out in CEM-SS cells
[2] = system: CEM-SS; experiment: Effective concentration required for 50% inhibition of viral replication by syncytium-forming assay carried out in CEM-SS cells
[3] = system: CEM-SS; experiment: Compound was evaluated for inhibitory activity against cell growth

With `CC1(C)CCC[C@]2(C)[C@@H](c3ccoc3)C(=O)[C@@H]3O[C@]312` the EC50 ([1]; Homo sapiens, CEM-SS) was 42.1 µM, the EC50 ([2]; Homo sapiens, CEM-SS) was 15.4 µM and the IC50 ([3]; cem-ss) was 48.3 µM and 154 µM.
For `CC1(C)CCC[C@@]2(C)[C@H](c3ccoc3)C(=O)[C@H]3O[C@@]312`, the EC50 ([1]; cem-ss) was 0.8 µM, the EC50 ([2]; cem-ss) was 0.6 µM and the IC50 ([3]; cem-ss) was 42.1 µM and 135 µM.
With `CC1(C)CCC[C@@]2(C)[C@H](c3ccoc3)C(=O)[C@H]3O[C@@]312` (racemic) the EC50 ([1]; Homo sapiens, CEM-SS) was 1.3 µM, the EC50 ([2]; cem-ss) was 1.7 µM and the IC50 ([3]; cem-ss) was 45.7 µM and 53.8 µM.
With `Cc1cn([C@H]2C[C@H](N=[N+]=[N-])[C@@H](CO)O2)c(=O)[nH]c1=O` [ZIDOVUDINE] the EC50 ([1]; Homo sapiens, CEM-SS) was 0.3 µM, the EC50 ([2]; Homo sapiens, CEM-SS) was 0.02 µM and the IC50 ([3]; Homo sapiens, CEM-SS) was greater than 1890 µM.
